Measured values taken from ChEMBL document CHEMBL3885861, “Open TG-GATES”.

Species: Rattus norvegicus
Assay: Open TG-GATES - Regimen: Daily Repeat
Assay type: toxicity, organism-based, Sprague-Dawley
Set-up: regimen Daily Repeat, gender Male, age 6 weeks
Conditions: in vivo, po, route gavage; for Bas / Eos / Fbg / Hb / MCH / MCHC / MCV / Mono / Neu / Plat / RBC / Ret / WBC / APTT / Ht / Lym / PT: tissue Blood; for KIDNEY_L / KIDNEY_R / KIDNEY_TOTAL: tissue Kidney; for LIVER: tissue Liver; for ALP / ALT / AST / BUN / CRE / Ca / DBIL / GLC / IP / K / LDH / Na / PL / RALB / TBIL / TC / TP / gamma-GTP / TG: tissue Plasma
[1] = 0 mg/kg, 72 h, dose level Control, time 3 day
[2] = 0 mg/kg, […], dose level Control, time 7 day
[3] = 0 mg/kg, […], dose level Control, time 14 day
[4] = 0 mg/kg, […], dose level Control, time 28 day
[5] = 100 mg/kg, 72 h, dose level Low, time 3 day
[6] = 100 mg/kg, […], dose level Low, time 7 day
[7] = 100 mg/kg, […], dose level Low, time 14 day
[8] = 100 mg/kg, […], dose level Low, time 28 day

## O=C(O)c1cn(C2CC2)c2cc(N3CCNCC3)c(F)cc2c1=O [CIPROFLOXACIN]
[1]
  TERMINAL_BW: 198.1 g
  Bas: 0%
  Eos: 1.2%
  Fbg: 228 mg/dL
  Hb: 13.2 g/dL
  MCH: 22.2 pg
  MCHC: 33.5%
  MCV: 66.2 fL
  Mono: 7.6%
  Neu: 12%
  Plat: 99.9 x10_4/uL
  RBC: 595 x10_4/ul
  Ret: 8.5%
  WBC: 105.1 x10_2/uL
  KIDNEY_L: 0.9 g
  KIDNEY_R: 0.9 g
  KIDNEY_TOTAL: 1.8 g
  LIVER: 9.9 g
  ALP: 993.2 IU/L
  ALT: 38.8 IU/L
  AST: 66 IU/L
  BUN: 17.2 mg/dL
  CRE: 0.5 mg/dL
  Ca: 11.4 mg/dL
  DBIL: 0.002 mg/dL
  GLC: 182 mg/dL
  IP: 7.9 mg/dL
  K: 5.1 meq/L
  LDH: 88.4 IU/L
  Na: 139.4 meq/L
  PL: 157 mg/dL
  RALB: 4 g/dL
  TBIL: 0.3 mg/dL
  TC: 84 mg/dL
  TP: 5.9 g/dL
  gamma-GTP: 1.8 IU/L
[2]
  TERMINAL_BW: 237.8 g
  APTT: 16.9 s
  Bas: 0%
  Eos: 0.8%
  Fbg: 230.2 mg/dL
  Hb: 12.6 g/dL
  Ht: 39.6%
  Lym: 82.2%
  MCH: 20.8 pg
  MCHC: 31.8%
  MCV: 65.5 fL
  Mono: 7%
  Neu: 10%
  PT: 11.9 s
  Plat: 101.9 x10_4/uL
  RBC: 605.2 x10_4/ul
  Ret: 6.9%
  WBC: 121.2 x10_2/uL
  KIDNEY_L: 1.1 g
  KIDNEY_R: 1.1 g
  KIDNEY_TOTAL: 2.1 g
  LIVER: 11.7 g
  ALP: 938.8 IU/L
  ALT: 31.6 IU/L
  AST: 61.8 IU/L
  BUN: 19.6 mg/dL
  CRE: 0.5 mg/dL
  Ca: 11.3 mg/dL
  DBIL: 0.01 mg/dL
  GLC: 186.8 mg/dL
  IP: 8.6 mg/dL
  K: 5 meq/L
  LDH: 67 IU/L
  Na: 140.6 meq/L
  PL: 158.4 mg/dL
  RALB: 3.9 g/dL
  TBIL: 0.3 mg/dL
  TC: 90.2 mg/dL
  TG: 93.6 mg/dL
  TP: 5.7 g/dL
  gamma-GTP: 1.2 IU/L
[3]
  TERMINAL_BW: 285 g
  APTT: 16.4 s
  Bas: 0%
  Eos: 1%
  Fbg: 250.2 mg/dL
  Hb: 14 g/dL
  Ht: 42.3%
  MCH: 21 pg
  MCHC: 33.1%
  MCV: 63.3 fL
  Mono: 4.4%
  Neu: 11%
  PT: 9.8 s
  Plat: 111.2 x10_4/uL
  RBC: 669.4 x10_4/ul
  Ret: 5.7%
  WBC: 131.2 x10_2/uL
  KIDNEY_L: 1.2 g
  KIDNEY_R: 1.2 g
  KIDNEY_TOTAL: 2.4 g
  LIVER: 13.3 g
  ALP: 844.4 IU/L
  ALT: 31.4 IU/L
  AST: 58.4 IU/L
  BUN: 18.8 mg/dL
  CRE: 0.6 mg/dL
  DBIL: 0.006 mg/dL
  GLC: 185.6 mg/dL
  IP: 7.9 mg/dL
  K: 4.7 meq/L
  LDH: 80.6 IU/L
  Na: 138.8 meq/L
  PL: 172.8 mg/dL
  RALB: 4.1 g/dL
  TBIL: 0.2 mg/dL
  TC: 82.2 mg/dL
  TG: 150.6 mg/dL
  TP: 6.3 g/dL
  gamma-GTP: 1.2 IU/L
[4]
  TERMINAL_BW: 358.5 g
  APTT: 17.2 s
  Bas: 0%
  Eos: 1%
  Fbg: 235.2 mg/dL
  Hb: 14.8 g/dL
  Ht: 44%
  MCH: 19.4 pg
  MCHC: 33.6%
  MCV: 57.8 fL
  Mono: 3.4%
  Neu: 11%
  PT: 11.3 s
  Plat: 107.5 x10_4/uL
  RBC: 762.2 x10_4/ul
  Ret: 2.8%
  WBC: 132.8 x10_2/uL
  KIDNEY_L: 1.3 g
  KIDNEY_R: 1.3 g
  KIDNEY_TOTAL: 2.5 g
  ALP: 566.6 IU/L
  ALT: 28.8 IU/L
  AST: 57.6 IU/L
  BUN: 18.8 mg/dL
  CRE: 0.4 mg/dL
  Ca: 10.7 mg/dL
  DBIL: 0.048 mg/dL
  GLC: 195.6 mg/dL
  IP: 7 mg/dL
  K: 4.3 meq/L
  LDH: 94.4 IU/L
  Na: 140.2 meq/L
  PL: 150.6 mg/dL
  RALB: 4.1 g/dL
  TBIL: 0.3 mg/dL
  TC: 75.4 mg/dL
  TG: 126.4 mg/dL
  TP: 6.6 g/dL
  gamma-GTP: 1.4 IU/L
[5]
  TERMINAL_BW: 197.9 g
  APTT: 16.8 s
  Bas: 0%
  Eos: 1%
  Fbg: 236.3 mg/dL
  Hb: 13.2 g/dL
  Ht: 39.6%
  MCV: 63.9 fL
  Mono: 6.2%
  Neu: 13%
  Plat: 90 x10_4/uL
  RBC: 621.4 x10_4/ul
  Ret: 6.4%
  WBC: 94.6 x10_2/uL
  KIDNEY_L: 0.9 g
  KIDNEY_R: 0.9 g
  KIDNEY_TOTAL: 1.8 g
  LIVER: 8.9 g
  ALP: 806.8 IU/L
  ALT: 44.4 IU/L
  AST: 64 IU/L
  CRE: 0.5 mg/dL
  DBIL: 0.012 mg/dL
  GLC: 182 mg/dL
  IP: 8.4 mg/dL
  K: 5.3 meq/L
  LDH: 83.2 IU/L
  Na: 139 meq/L
  PL: 140.6 mg/dL
  RALB: 3.8 g/dL
  TBIL: 0.3 mg/dL
  TC: 78.6 mg/dL
  TG: 76.6 mg/dL
  TP: 5.6 g/dL
  gamma-GTP: 1.6 IU/L
[6]
  TERMINAL_BW: 227.7 g
  Bas: 0%
  Eos: 0.8%
  Fbg: 221.6 mg/dL
  Hb: 12.9 g/dL
  Ht: 38.6%
  Lym: 80%
  MCH: 21.2 pg
  MCV: 63.8 fL
  Mono: 5.8%
  Neu: 13.8%
  Plat: 94 x10_4/uL
  RBC: 605.6 x10_4/ul
  Ret: 6.4%
  WBC: 126.8 x10_2/uL
  KIDNEY_L: 1 g
  KIDNEY_R: 1 g
  KIDNEY_TOTAL: 2.1 g
  LIVER: 10.7 g
  ALP: 932.4 IU/L
  ALT: 37.2 IU/L
  AST: 65.8 IU/L
  BUN: 18.2 mg/dL
  CRE: 0.5 mg/dL
  Ca: 11.4 mg/dL
  DBIL: 0 mg/dL
  GLC: 184 mg/dL
  IP: 8.4 mg/dL
  K: 4.9 meq/L
  LDH: 56 IU/L
  Na: 139.8 meq/L
  PL: 149.8 mg/dL
  RALB: 3.9 g/dL
  TBIL: 0.3 mg/dL
  TG: 74.8 mg/dL
  TP: 5.8 g/dL
  gamma-GTP: 1.6 IU/L
[7]
  TERMINAL_BW: 280.3 g
  APTT: 16.3 s
  Bas: 0%
  Eos: 0.8%
  Fbg: 243.6 mg/dL
  Hb: 14 g/dL
  Ht: 41.8%
  Lym: 85.8%
  MCHC: 33.4%
  MCV: 61.8 fL
  Mono: 5.4%
  Neu: 8.2%
  PT: 10.2 s
  Plat: 102.2 x10_4/uL
  RBC: 678.2 x10_4/ul
  Ret: 6.3%
  WBC: 155.4 x10_2/uL
  KIDNEY_L: 1.1 g
  KIDNEY_R: 1.1 g
  KIDNEY_TOTAL: 2.3 g
  ALP: 887.8 IU/L
  ALT: 33 IU/L
  AST: 66.4 IU/L
  BUN: 21.2 mg/dL
  CRE: 0.5 mg/dL
  Ca: 10.9 mg/dL
  DBIL: 0.022 mg/dL
  GLC: 195.6 mg/dL
  IP: 8.4 mg/dL
  K: 4.9 meq/L
  LDH: 88 IU/L
  Na: 139.2 meq/L
  PL: 175 mg/dL
  RALB: 4 g/dL
  TBIL: 0.3 mg/dL
  TC: 89 mg/dL
  TG: 128 mg/dL
  TP: 6.1 g/dL
  gamma-GTP: 2.2 IU/L
[8]
  TERMINAL_BW: 387.5 g
  APTT: 17.3 s
  Bas: 0%
  Eos: 1%
  Fbg: 233.2 mg/dL
  Hb: 14.7 g/dL
  Ht: 44.2%
  Lym: 85.2%
  MCH: 19.8 pg
  MCHC: 33.4%
  MCV: 59.3 fL
  Mono: 4.4%
  Neu: 9.4%
  PT: 11.4 s
  Plat: 105.1 x10_4/uL
  RBC: 746.2 x10_4/ul
  Ret: 3%
  WBC: 131.4 x10_2/uL
  KIDNEY_L: 1.4 g
  KIDNEY_R: 1.4 g
  KIDNEY_TOTAL: 2.8 g
  LIVER: 15.3 g
  ALP: 630 IU/L
  ALT: 29 IU/L
  AST: 54.2 IU/L
  BUN: 17.8 mg/dL
  CRE: 0.4 mg/dL
  Ca: 11 mg/dL
  DBIL: 0.024 mg/dL
  GLC: 185.4 mg/dL
  IP: 7.5 mg/dL
  K: 4.6 meq/L
  LDH: 75.6 IU/L
  Na: 140 meq/L
  PL: 141.6 mg/dL
  RALB: 4 g/dL
  TBIL: 0.3 mg/dL
  TC: 72.8 mg/dL
  TG: 108.8 mg/dL
  TP: 6.4 g/dL
  gamma-GTP: 1.4 IU/L
300 mg/kg, 72 h, dose level Middle, time 3 day
  TERMINAL_BW: 198.3 g
